According to patent publication US8674113B2, “Compounds” (Boehringer Ingelheim International GmbH, priority 2010, dated 2014):

Key:
mPGES-1 in A549 cells = mPGES-1 in A549 cells (Homo sapiens (Human), UniProt O14684); experiment: A549 cell-based assay (PGE2 formation, 50% human serum); conditions: IL-1β 5 ng/ml, 10 nM arachidonic acid, 20-24 h, read-out: mPGES-1 inhibitory effect IC50 in the cell assay
How it was run: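 PGE2 release, read by HTRF and set to 100% for vehicle, gave IC50s from 6-8 point titrations. Human A549 cells were exposed to compound for 20-24 h in medium with 50% human serum, with IL-1β (5 ng/ml) and arachidonic acid (10 nM) as stimulus.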

[1] = biological target: recombinant human mPGES-1 (Homo sapiens (Human), UniProt O14684); experiment: mPGES-1 enzyme assay (HTRF detection of PGE2); format: biochemical; conditions: recombinant human mPGES-1 microsomes, PGH2 2 μM, 60 seconds; read-out: mPGES-1 inhibitory effect IC50 in the enzyme assay
Sequence of recombinant human mPGES-1 (O14684 whole entry): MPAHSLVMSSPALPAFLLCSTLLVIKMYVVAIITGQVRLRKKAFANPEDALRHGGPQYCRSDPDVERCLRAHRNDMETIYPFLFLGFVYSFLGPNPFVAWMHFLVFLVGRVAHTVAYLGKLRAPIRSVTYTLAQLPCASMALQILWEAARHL
Experimental: Microsomes from Rosetta E. coli bacteria expressing recombinant human mPGES-1 can be derived as described below:
Inoculate 5 ml LB with Ampicilin (50 μg/ml) and Chloramphenicol (34 μg/ml) with bacteria from freeze culture. Incubate 8 h at 37° C. with 200 rpm. Thereafter, inoculate 500-1000 ml LB containing Amp and Chloro with the 5 ml on culture and grow to OD640 of 0.8-1.0. Chill the culture to +4° C. before induction. Induce the culture with IPTG at a final concentration of 400 μM. Express the protein at room temp 18-23° C. with 200 rpm shaking over night.
The following steps can be performed on the following day: • 1. Spin down the cells in 250 ml centrifuge flasks for 15 min at 7000 rpm (Beckmann Coulte Avanti J-E centrifuge) • 2. Dissolve the pellet from 250 ml culture in 12.5 ml homogenization buffer • 3. (15 mM Tris-HCL pH8, 1 mM EDTA pH8, […], 2.5 mM GSH, 1 Tablet Protease inhibitor per 50 ml buffer) • 4. Disintegrate the cells by sonication, 5×10 seconds at 48% amplitude of a 750 W sonifier • 5. Add 2.5 ml MgCl2 (100 mM) and DNase 12.5 μl (0.8 mg/ml) and incubate on ice for 30 min • 6. Spin down the bacteria debris and save the supernatant, 7000 rpm for 15 min • 7. Isolate the protein containing membranes in the supernatant by ultracentrifugation 120000×g for 2 hour at 4° C. (Sorvall T880 rotor). • 8. Discard the supernatant and dissolve the pellet in 20 mM Potassium phosphate buffer pH7.4 (KH2PO4 and K2HPO4) buffer by sonication (5×10 s, 30% of a 50 W sonifier) and aliquot the enzyme and store aliquots at −80° C.
Before each experiment is performed an aliquot of the enzyme is thawed and it can then be dissolved in 0.1 M Potassium phosphate buffer pH7.4 (KH2PO4 and K2HPO4) buffer containing 2.5 mM GSH.
The aim of this assay is to determine the affinity of a test compound for the mPGES-1 enzyme.
47 μl of recombinant human mPGES-1 (˜0.5 μg protein/well) containing microsomal suspension in a buffer containing GSH, (2.5 mmol/L L-Glutathione reduced, dissolved in 0.1 mol/L Phosphat Buffer pH 7.4) is dispensed in a 384-well plate and thereafter 1 μl of the test compound(s) is/are added and incubated for 25 minutes at room temperature. The enzyme reaction is started by the addition of 2 ul PGH2 (final conc 2 μM) disolved in water-free Diglyme. After 60 seconds the reaction is terminated by addition of a stop solution containing FeCl2 (10 μL 0.074 mol/l FeCl2). The samples are diluted between 1:25 in PBS (Phosphate Buffered Saline). 10 μl of the diluted samples are transferred to 384-well low volume plate. In order to quantify the amount of PGE2 that has been formed, a homogenous time resolved fluorescent (HTRF) detecting of PGE2 has been performed using a commercially available kit from Cisbio according to the manufactures recommendation. This HTRF-based assay has been described in detail (see: Goedken et al., J Biomol Screen, 2008, 13(7), 619-625). Briefly, the diluted samples are mixed with 5 μl PGE2-d2 conjugate and 5 μl anti-PGE2 cryptate conjugate. After an incubation period of the plates over night, the fluorescence is measured by the use of an appropriate microplate reader.
The fluorescence of Europium cryptate (maxex=307 nm, maxem=620 nm) and d2-PGE2 (maxex=620 nm, maxem=665 nm) are measured.
The extent of the specific HTRF is measured as a ratio of the emission intensity at 665 nm vs. that at 620 nm at an excitation puts of 320 nm. The quantification plate contains also wells with different concentrations of PGE2 as calibration curve for the calculation of the PGE2 concentrations from the HTRF ratio values.
From all mPGES enzyme assay the background is subtracted and the IC50 is calculated over a nonlinear regression with conventional software.

Sequence of mPGES-1 in A549 cells (O14684 whole entry): as above

Compound `Cn1c(Nc2c(Cl)ccc(CNC(=O)C(C)(C)C)c2Cl)nc2cc(C(=O)N[C@H]3CC[C@H](C(F)(F)F)CC3)c(N3CCOCC3)cc21` [Example 67] has an IC50 (mPGES-1 in A549 cells) of 2 nM and an IC50 [1] of 4 nM.
For `Cn1c(Nc2c(Cl)ccc(CNC(=O)c3ccc(O)cc3F)c2Cl)nc2cc(C(=O)NCCC(F)(F)F)c(N3CCC(C(F)(F)F)CC3)cc21` [Example 173], the IC50 (mPGES-1 in A549 cells) was 2 nM and the IC50 [1] was 2 nM.
In the case of `Cn1c(Nc2c(Cl)ccc(CNC(=O)[C@@](C)(O)C(F)(F)F)c2Cl)nc2cc(C(=O)Nc3ccc(F)c(Cl)c3)c(N3CCC(C(F)(F)F)CC3)cc21` [Example 233], the IC50 (mPGES-1 in A549 cells) is reported as 1 nM and the IC50 [1] is reported as 3.9 nM.
For `CN(CCC(F)(F)F)c1cc2c(cc1C(=O)NCC(F)(F)F)nc(Nc1c(Cl)ccc(CNC(=O)C(C)(C)C)c1Cl)n2C` [Example 34], the IC50 (mPGES-1 in A549 cells) was 1 nM and the IC50 [1] was 3 nM.
`Cn1c(Nc2c(Cl)ccc(CNC(=O)C(C)(C)C)c2Cl)nc2cc(C(=O)NCC(F)(F)F)c(N3CCC(C(F)(F)F)CC3)cc21` [Example 28] showed an IC50 (mPGES-1 in A549 cells) of 1.5 nM and an IC50 [1] of 2 nM.
`Cn1c(Nc2c(Cl)ccc(CNC(=O)C(C)(C)C)c2Cl)nc2cc(C(=O)N[C@H]3CC[C@H](C(F)(F)F)CC3)c(N3CCN(CC(F)(F)F)CC3)cc21` [Example 132] showed an IC50 (mPGES-1 in A549 cells) of 1.5 nM and an IC50 [1] of 5 nM.
`Cn1c(Nc2c(Cl)ccc(CNC(=O)C(C)(C)C)c2Cl)nc2cc(C(=O)Nc3ccc(OC(F)(F)F)cc3)c(N3CC4CC4C3)cc21` (stereo not drawn) [Example 64] gave an IC50 (mPGES-1 in A549 cells) of 2.6 nM and an IC50 [1] of 3 nM.
In the case of `Cn1c(Nc2c(Cl)ccc(CNC(=O)C(C)(C)C)c2Cl)nc2cc(C(=O)Nc3ccc(OC(F)(F)F)cc3)c(N3CCOCC3)cc21` [Example 141], the IC50 (mPGES-1 in A549 cells) is reported as 1 nM and the IC50 [1] is reported as 2 nM.
`Cn1c(Nc2c(Cl)ccc(CNC(=O)C(C)(C)C)c2Cl)nc2cc(C(=O)N[C@H]3CC[C@@H](C(F)(F)F)CC3)c(N3CC4CC4C3)cc21` (stereo partly drawn) [Example 63] gave an IC50 (mPGES-1 in A549 cells) of 6 nM and an IC50 [1] of 3 nM.
With `Cn1c(Nc2c(Cl)ccc(CNC(=O)c3c(O)cccc3F)c2Cl)nc2cc(C(=O)NCCC(F)(F)F)c(N3CCC(C(F)(F)F)CC3)cc21` [Example 179] the IC50 (mPGES-1 in A549 cells) was > 100 nM and the IC50 [1] was 2 nM.
`Cn1c(Nc2c(Cl)ccc(CNC(=O)C(C)(C)C)c2Cl)nc2cc(C(=O)NC3(c4ccc(F)cc4)CC3)c(N3CCC(C(F)(F)F)CC3)cc21` [Example 58] gave an IC50 (mPGES-1 in A549 cells) of 1 nM and an IC50 [1] of 3 nM.
Compound `Cn1c(Nc2c(Cl)ccc(CNC(=O)C(C)(C)C)c2Cl)nc2cc(C(=O)N[C@H]3CC[C@H](C(F)(F)F)CC3)c(N3CCC(C)(O)C3)cc21` (stereo partly drawn) [Example 83] has an IC50 (mPGES-1 in A549 cells) of 1.4 nM and an IC50 [1] of 2 nM.
For `Cn1c(Nc2c(Cl)ccc(CNC(=O)c3c(N)cccc3Cl)c2Cl)nc2cc(C(=O)NCCC(F)(F)F)c(N3CCC(C(F)(F)F)CC3)cc21` [Example 176], the IC50 (mPGES-1 in A549 cells) was 34 nM and the IC50 [1] was 4 nM.
`Cn1c(Nc2c(Cl)ccc(CNC(=O)C(C)(C)C)c2Cl)nc2cc(C(=O)N[C@H]3CC[C@H](C(F)(F)F)CC3)c(N3CCn4cncc4C3)cc21` [Example 24] was tested, and the IC50 (mPGES-1 in A549 cells) was 44 nM and the IC50 [1] was 5 nM.
`Cn1c(Nc2c(Cl)ccc(CNC(=O)C(C)(C)C)c2Cl)nc2cc(C(=O)Nc3ccc(OC(F)(F)F)cc3)c(N3CCC(F)(F)C3)cc21` [Example 35, N-(4-Trifluoromethoxy-phenyl)-2-{2,6-dichloro-3-[(2,2-dimethyl-propionylamino)-methyl]-phenylamino}-6-[3,3-difluoro-pyrrolidinyl]-1-methyl-1H-benzimidazole-5-carboxylic acid amide] gave an IC50 (mPGES-1 in A549 cells) of 1 nM and an IC50 [1] of 2 nM.
In the case of `CN(CC#N)c1cc2c(cc1C(=O)N[C@H]1CC[C@H](C(F)(F)F)CC1)nc(Nc1c(Cl)ccc(CNC(=O)C(C)(C)C)c1Cl)n2C` [Example 112, N-(trans-4-Trifluoromethyl-cyclohexyl)-2-{2,6-dichloro-3-[(2,2-dimethyl-propionylamino)-methyl]-phenylamino}-6-[N-methyl-N-cyanomethyl-amino]-1-methyl-1H-benzimidazole-5-carboxylic acid amide], the IC50 (mPGES-1 in A549 cells) is reported as 1 nM and the IC50 [1] is reported as 3 nM.
For `CN(c1cc2c(cc1C(=O)NCCC(F)(F)F)nc(Nc1c(Cl)ccc(CNC(=O)C(C)(C)F)c1Cl)n2C)C1CCC1` [Example 149], the IC50 (mPGES-1 in A549 cells) was 3 nM and the IC50 [1] was 3 nM.
For `Cn1c(Nc2c(Cl)ccc(CNC(=O)C(C)(C)C)c2Cl)nc2cc(C(=O)N[C@H]3CC[C@H](C(F)(F)F)CC3)c(N3CCC4(CC4)C3)cc21` [Example 121], the IC50 (mPGES-1 in A549 cells) was 2 nM and the IC50 [1] was 3 nM.
`Cn1c(Nc2c(Cl)ccc(CNC(=O)C(C)(C)C(F)(F)F)c2Cl)nc2cc(C(=O)Nc3ccc(F)c(Cl)c3)c(N3CCC(C(F)(F)F)CC3)cc21` [Example 232] gave an IC50 (mPGES-1 in A549 cells) of 1.4 nM and an IC50 [1] of 1.7 nM.
`Cn1c(Nc2c(Cl)ccc(CNC(=O)C(C)(C)C)c2Cl)nc2cc(C(=O)NCC(F)(F)C(F)(F)F)c(N3CCC(C(F)(F)F)CC3)cc21` [Example 53] gave an IC50 (mPGES-1 in A549 cells) of 1 nM and an IC50 [1] of 2 nM.
Work on `CC(C)(C)C(=O)NCc1ccc(F)c(Nc2nc3cc(C(=O)N[C@H]4CC[C@H](C(F)(F)F)CC4)c(N4CCC(F)CC4)cc3[nH]2)c1F` [Example 5, N-(trans-4-Trifluoromethyl-cyclohexyl)-2-{2,6-difluoro-3[(2,2-dimethyl-propionylamino)-methyl]-phenylamino}-6-[4-fluoro-piperidinyl]-1H-benzimidazole-5-carboxylic acid amide] yielded an IC50 (mPGES-1 in A549 cells) of 39 nM and an IC50 [1] of 2 nM.
Compound `Cn1c(Nc2c(Cl)ccc(CNC(=O)C(C)(C)F)c2Cl)nc2cc(C(=O)NCCC(F)(F)F)c(N3CCC(O)CC3)cc21` [Example 148] has an IC50 (mPGES-1 in A549 cells) of 20 nM and an IC50 [1] of 3 nM.
For `Cn1c(Nc2c(Cl)ccc(CNC(=O)C(C)(C)C)c2Cl)nc2cc(C(=O)N[C@H]3CC[C@H](C(F)(F)F)CC3)c(N3CC4(CCC4)C3)cc21` [Example 94], the IC50 (mPGES-1 in A549 cells) was 6 nM and the IC50 [1] was 4 nM.
Work on `CN(c1cc2c(cc1C(=O)NCC(F)(F)F)nc(Nc1c(Cl)ccc(CNC(=O)C(C)(C)C)c1Cl)n2C)C1CCCC1` [Example 27] yielded an IC50 (mPGES-1 in A549 cells) of 2 nM and an IC50 [1] of 2 nM.
`Cn1c(Nc2c(Cl)ccc(CNC(=O)[C@](C)(O)C(F)(F)F)c2Cl)nc2cc(C(=O)Nc3ccc(F)c(Cl)c3)c(N3CC[C@@H](F)C3)cc21` [Example 248] showed an IC50 (mPGES-1 in A549 cells) of 6 nM and an IC50 [1] of 6.7 nM.
`Cn1c(Nc2c(Cl)ccc(CNC(=O)C(C)(C)C(F)(F)F)c2Cl)nc2cc(C(=O)NCCC(F)(F)F)c(N3CCC(C(F)(F)F)CC3)cc21` [Example 261] gave an IC50 (mPGES-1 in A549 cells) of 1.6 nM and an IC50 [1] of 2.9 nM.
For `Cn1c(Nc2c(Cl)ccc(CNC(=O)C(C)(C)C)c2Cl)nc2cc(C(=O)NCC(F)(F)F)c(N3CCc4ccc(Cl)cc4C3)cc21` [Example 32], the IC50 (mPGES-1 in A549 cells) was 6 nM and the IC50 [1] was 2 nM.
In the case of `Cn1c(Nc2c(Cl)ccc(CNC(=O)[C@](C)(O)C(F)(F)F)c2Cl)nc2cc(C(=O)N[C@H]3CC[C@H](C(F)(F)F)CC3)c(N3CCC(C(F)(F)F)CC3)cc21` [Example 252], the IC50 (mPGES-1 in A549 cells) is reported as 1.4 nM and the IC50 [1] is reported as 2.9 nM.
`Cn1c(Nc2c(Cl)ccc(CNC(=O)[C@@](C)(O)C(F)(F)F)c2Cl)nc2cc(C(=O)NC3CC(F)(F)C3)c(N3CCC(C(F)(F)F)CC3)cc21` [Example 258] gave an IC50 (mPGES-1 in A549 cells) of 4 nM and an IC50 [1] of 2.2 nM.
With `CN(c1cc2c(cc1C(=O)N[C@H]1CC[C@H](C(F)(F)F)CC1)nc(Nc1c(Cl)ccc(CNC(=O)C(C)(C)C)c1Cl)n2C)C1CCC1` [Example 91] the IC50 (mPGES-1 in A549 cells) was < 1 nM and the IC50 [1] was 4 nM.
